Results as given in patent US8846012B2, “Melanin production inhibitor” (Pola Chemical Industries Inc., priority 2008, dated 2014).
In brackets after ≈: the same amount, converted by molar mass. Like-named read-outs stand apart in the source and are kept apart here.

Columns and labels:
normal human melanocytes = test: Melanin production inhibition test using cultured normal human melanocytes (14C-thiouracil incorporation); type: cell-based; settings: for activity at 2 µM: addition amount 2.0 μM; for activity at 15 µM: treatment concentration 15 μM; for activity at 20 µM: treatment concentration 20 μM
Protocol: The inhibitory effect on melanin production of the melanin production inhibitor of the present invention can be measured using thiouracil which is incorporated specifically into cells in a melanin synthesis process in the cells. For example, the amount of melanin production can be measured by measuring an amount of thiouracil incorporated into cells by measuring an amount of radiation with radiolabeled thiouracil.
The inhibitory effect on melanin production of Compound 1 was evaluated using 2-thiouracil (^14C-labeled 2-thiouracil was used in this test) which is incorporated specifically into melanin in an intracellular melanin synthesis process. Complete medium for culture of melanocytes (manufactured by Kurabo Industries Ltd.) was added to 15 wells in a 24-well plate in an amount of 2 mL per well, and normal human melanocytes (manufactured by Kurabo Industries Ltd.) were seeded into the wells at a concentration of 1.5×10^4 cells/cm^2. The cells were cultured in a 5% carbon dioxide atmosphere at 37° C. for 24 hours. Thereafter, the medium in all the wells was exchanged under the following conditions: fresh complete medium for culture of melanocytes (control) was used in three wells; each of complete medium for culture of melanocytes, which including Compound 1 at concentrations of 1.0 μM, 2.0 μM, and 4.0 μM, was used in a total of nine wells including three wells for each concentration; and complete medium for culture of melanocytes, each of which including arbutin (positive control) known as a melanin production inhibitor at a concentration of 0.5 mM (500 μM), was used in the other three wells. Further, 2-[2-^14C]thiouracil (^14C-labeled thiouracil) was added to each of these 15 wells at 0.25×10^−6 Ci (curie). Then, the cells were cultured for further 3 days under the same conditions as the above. After the completion of culture, the culture medium was removed from the wells, and the cells were washed with phosphate buffered physiological saline (PBS) and then separated from the bottoms of the wells with medium including trypsin and EDTA to prepare cell suspensions, followed by centrifugation to collect the cells. The number of the cells was counted using a hemocytometer. Thereafter, the amounts of ^14C-thiouracil in the cells collected from each well (0.25×10^−6 Ci) were measured using a liquid scintillation counter (ALOKA CO., LTD.). The percentages of an amount of radioactivity in the cells cultured in the medium including the test substances with respect to an amount of radioactivity in the cells collected from the well of the control were calculated as amounts of melanin (%). That is, as the amount of radioactivity incorporated into the cells is smaller, the amount of melanin is evaluated to be smaller, i.e., the melanin inhibition effect of the component added is evaluated to be larger.
Inhibitory effects on melanin production of Compounds 2 to 39 (however, the effects of Compound 9 and 15 were not measured) were examined in the same procedure as in Test Example 1.
These were examined in the same procedure as in Test Example 1.
Further, the results of melanin production inhibition by treatment with the respective test compounds, determined in the same procedure as in Test Example 1, are also shown in the table.

[1] = tested on: Trichopyton mentagrophytes (ATCC18748); test: Measurement of antimycotic activity (Alamar Blue growth inhibition of dermatophytes); type: cell-based; settings: for inhibition at 0.1563 µg/mL / inhibition at 0.3125 µg/mL / inhibition at 0.625 µg/mL / inhibition at 1.25 µg/mL / inhibition at 2.5 µg/mL / inhibition at 5 µg/mL / inhibition at 10 µg/mL / inhibition at 100 µg/mL: read-out: Growth inhibition rate; for MIC80: read-out: MIC80 Concentration; for growth inhibitory effect on Trichopyton mentagrophytes (in words): added at a concentration of 100 μg/mL
Protocol: 10.4 g of RPMI1640 (manufactured by SAFC Biosciences) were dissolved in 900 mL of distilled water, and 34.53 g of a 0.165 M MOPS buffer (manufactured by DOJINDO LABORATORIES) were added and dissolved by stirring.
Dermatophytes (Trichopyton mentagrophytes (ATCC18748)) were inoculated into a 1/10 Sabouraud Dextrose agar medium (manufactured by DIFCO) and cultured at 28° C. for 14 days, and then a conidial suspension was prepared using 0.1% Tween80-including physiological saline. The suspension was filtered through gauze, and the number of the conidia was counted using a hemocytometer and then adjusted to 2.5×10^5/mL with the RPMI1640 medium. The resultant suspension was used as an inoculum.
Compound 5 and clotrimazole were diluted with the RPMI1640 medium to prepare 0.3125, 0.625, 1.25, 2.5, 5, 10, 20, and 200 μg/mL diluted solutions. The diluted solutions having different concentrations were dispensed into a 96-well flat-bottom microplate in an amount of 100 μL per well, and 80 μL of the inoculum and 20 μL of an Alamar Blue solution (manufactured by Nalgene) were further added thereto. Further, 80 μL of the inoculum and 20 μL of the Alamar Blue solution were added to 100 μL of the RPMI1640 medium in growth control wells, and 20 μL of the Alamar Blue solution was added to 180 μL of the RPMI1640 medium in negative control wells. The microplate was placed in a chamber in which the humidity was kept constant, and culture was started at 27° C., and the cells were observed every 24 hours. 120 hours from beginning of culture, i.e., when the growth control became obviously red (reduced form), absorbance measurement at 570 nm was performed using a microplate reader (SPECTRAMAX 250, manufactured by Molecular Device).
The test compounds were tested at the respective concentrations in triplicate. The growth inhibition rate (%) of each of the test compound-added groups was determined by the following equation based on a value calculated by subtracting an average absorbance value of the negative control from an average absorbance value of the growth control and the test compound-added wells. Further, […] (minimum inhibitory concentration; the minimum concentration at which the growth inhibition rate is 80% or more) was calculated from the growth inhibition rate of each test compound. Growth inhibition rate (%)=[1−(average absorbance value in test compound-added wells-average absorbance value of negative control)/(average absorbance value of growth control-average absorbance value of negative control)]×100
Compound 1, Compounds 3 to 6, Compound 40, Compound 41, triphenylmethylamine, triphenylmethanol, triphenylmethane, aminodiphenylmethane, and clotrimazole were diluted with the RPMI1640 medium to prepare 0.3125, 0.625, 1.25, 2.5, 5, 10, 20, and 200 μg/mL diluted solutions. The diluted solutions having different concentrations were dispensed into a 96-well flat-bottom microplate in an amount of 100 μl, per well, and 80 μL of the inoculum and 20 μl, of an Alamar Blue solution (manufactured by Nalgene) were further added thereto. Further, 80 μl, of the inoculum and 20 μl, of the Alamar Blue solution were added to 100 μL of the RPMI1640 medium in growth control wells, and 20 μL of the Alamar Blue solution was added to 180 μL of the RPMI1640 medium in negative control wells. The microplate was placed in a chamber in which the humidity was kept constant, and then culture was started at 27° C., and the cells were observed every 24 hours. 120 hours from beginning of culture, i.e., when the growth control became obviously red (reduced form), absorbance measurement at 570 nm was performed using a microplate reader (SPECTRAMAX 250, manufactured by Molecular Device).
The test compounds were tested at the respective concentrations in triplicate. […]

[2] = Homo sapiens, Melanocyte, Table 7, treatment concentration 4 μM, read-out: Amount of melanin
[3] = minimum concentration at which the growth inhibition rate is 80% or more
[4] = Homo sapiens, Melanocyte, Table 7, read-out: Amount of melanin

Question: Which results are given for c1ccc(C(c2ccccc2)(c2ccccc2)N2CCCCC2)cc1 [Compound 5, 1-(triphenylmethyl)piperidine]?
Answer: activity at 1.5 µM (normal human melanocytes; Homo sapiens, Melanocyte, Table 2, addition amount 1.5 μM, control = 100%): 37.7 ± 0.8%; activity at 4 µM (normal human melanocytes; [2]): 16.8 ± 0.96%; inhibition at 0.1563 µg/mL ([1]; 120 h): -4.5%; inhibition at 0.3125 µg/mL ([1]; 120 h): 8%; inhibition at 0.625 µg/mL ([1]; 120 h): -2.7%; inhibition at 1.25 µg/mL ([1]; 120 h): 3.1%; inhibition at 2.5 µg/mL ([1]; 120 h): -4.5%; inhibition at 5 µg/mL ([1]; 120 h): -17.5%; inhibition at 10 µg/mL ([1]; 120 h): -14.4%; inhibition at 100 µg/mL ([1]; 120 h): 13.2%; MIC80 [1]: > 100 µg/mL

Question: c1ccc(C(c2ccccc2)(c2ccccc2)N2CCCC2)cc1 [Compound 6, 1-(triphenylmethyl)pyrrolidine] was tested. Which activity at 2 µM (normal human melanocytes; Homo sapiens, Melanocyte, Table 2, control = 100%) did it give?
Answer: 32.6 ± 4.1%

Question: And the activity at 4 µM (normal human melanocytes; [2])?
Answer: 17.2 ± 0.8%

Question: What about the “growth inhibitory effect on Trichopyton mentagrophytes (in words)” value (“growth inhibitory effect” for short) [1] of the same compound?
Answer: no growth inhibitory effect

Question: And the MIC80 [1]?
Answer: > 100 µg/mL

Question: Which results are given for c1ccc(C(c2ccccc2)(c2ccccc2)n2ccnc2)cc1 [Compound 1, 1-(triphenylmethyl)imidazole]?
Answer: inhibitory effect of melanin production relative to that of arbutin (normal human melanocytes; 1.0 μM Compound 1 compared with 0.5 mM arbutin): ≥ 100 times; activity at 1 µM (normal human melanocytes; Homo sapiens, Melanocyte, addition amount 1.0 μM, control = 100%, mean ± SD of three samples): 63.8 ± 3.6%; activity at 2 µM (normal human melanocytes; Homo sapiens, Melanocyte, control = 100%, mean ± SD of three samples): 37 ± 5.3%; activity at 4 µM (normal human melanocytes; Homo sapiens, Melanocyte, addition amount 4.0 μM, control = 100%, mean ± SD of three samples): 29.2 ± 2.9%; activity at 4 µM (normal human melanocytes; [2]): 29.5 ± 2.5%; MIC80 [1, 3]: 0.625 µg/mL (≈ 2.01 µM)

Question: For Cc1ccc(C(c2ccc(C)cc2)n2ccnc2)cc1 [Compound 41], which activity at 15 µM (normal human melanocytes; [4]) is on record?
Answer: 34.1 ± 2.58%

Question: And the MIC80 [1, 3]?
Answer: 5 µg/mL (≈ 19.1 µM)

Question: Which results are given for NC(c1ccccc1)c1ccccc1 [Aminodiphenylmethane]?
Answer: activity at 40 µM (normal human melanocytes; Homo sapiens, Melanocyte, Table 3, addition amount 40 μM, control = 100%): 36.6 ± 12.8%; activity at 50 µM (normal human melanocytes; Homo sapiens, Melanocyte, Table 7, treatment concentration 50 μM, read-out: Amount of melanin): 28.8 ± 2.03%; growth inhibitory effect on Trichopyton mentagrophytes (in words) [1]: no growth inhibitory effect; MIC80 [1, 3]: > 100 µg/mL

Question: Which results are given for OC(c1ccccc1)(c1ccccc1)c1ccccc1 [Triphenylmethanol]?
Answer: activity at 7.5 µM (normal human melanocytes; Homo sapiens, Melanocyte, Table 3, addition amount 7.5 μM, control = 100%): 41.3 ± 2.8%; activity at 15 µM (normal human melanocytes; [4]): 31.6 ± 2.39%; MIC80 Concentration [1, 3]: 100.0000 µg/mL (≈ 384 µM); MIC80 [1, 3]: 100 µg/mL (≈ 384 µM)

Question: How did the activity at 25 µM (normal human melanocytes; Homo sapiens, Melanocyte, Table 2, addition amount 25 μM, control = 100%) turn out when Cc1ccc(C(O)c2ccc(C)cc2)cc1 [Compound 14, [bis(4-methylphenyl)]methanol] was run?
Answer: 44.6 ± 5.6%

Question: And the activity at 40 µM (normal human melanocytes; Homo sapiens, Melanocyte, Table 7, treatment concentration 40 μM, read-out: Amount of melanin)?
Answer: 37.9 ± 1.39%

Question: What about the “MIC80 Concentration” value [1, 3] of the same compound?
Answer: 100.0000 µg/mL (≈ 471 µM)

Question: What about the MIC80 [1, 3] of the same compound?
Answer: 100 µg/mL (≈ 471 µM)

Question: NC(c1ccccc1)(c1ccccc1)c1ccccc1 [Triphenylmethylamine] was tested. Which activity at 12.5 µM (normal human melanocytes; Homo sapiens, Melanocyte, Table 3, addition amount 12.5 μM, control = 100%) did it give?
Answer: 57.3 ± 1.6%

Question: And the activity at 20 µM (normal human melanocytes; [4])?
Answer: 23 ± 2.41%

Question: And the “growth inhibitory effect” value [1]?
Answer: no growth inhibitory effect

Question: And the MIC80 [1, 3]?
Answer: > 100 µg/mL

Question: c1ccc(C(c2ccccc2)c2ccccc2)cc1 [Triphenylmethane] was tested. Which activity at 15 µM (normal human melanocytes; [4]) did it give?
Answer: 32.2 ± 1.82%

Question: And the activity at 10 µM (normal human melanocytes; Homo sapiens, Melanocyte, Table 3, addition amount 10 μM, control = 100%)?
Answer: 42.3 ± 1.4%

Question: And the “growth inhibitory effect” value [1]?
Answer: no growth inhibitory effect

Question: What about the MIC80 [1] of the same compound?
Answer: > 100 µg/mL

Question: With Clc1ccccc1C(c1ccccc1)(c1ccccc1)n1ccnc1 [Clotrimazole, clotrimazole, reference compound] as the compound, how does the activity at 2.5 µM (normal human melanocytes; Homo sapiens, Melanocyte, Table 7, treatment concentration 2.5 μM, read-out: Amount of melanin) read?
Answer: 23.2%

Question: And the Amount of melanin (normal human melanocytes; Table 7, treatment concentration 2.5 μM)?
Answer: 23.2 ± 2.03 %/control

Question: And the inhibition at 0.1563 µg/mL ([1]; concentration 0.1563 μg/mL, 120 hours)?
Answer: 27%

Question: And the inhibition at 0.3125 µg/mL ([1]; concentration 0.3125 μg/mL, 120 hours)?
Answer: 53%

Question: What about the inhibition at 0.625 µg/mL ([1]; concentration 0.6250 μg/mL, 120 hours) of the same compound?
Answer: 82.5%

Question: And the inhibition at 1.25 µg/mL ([1]; concentration 1.2500 μg/mL, 120 hours)?
Answer: 92.2%

Question: What about the inhibition at 2.5 µg/mL ([1]; concentration 2.5000 μg/mL, 120 hours) of the same compound?
Answer: 93.4%

Question: What about the inhibition at 5 µg/mL ([1]; concentration 5.0000 μg/mL, 120 hours) of the same compound?
Answer: 85.4%

Question: And the inhibition at 10 µg/mL ([1]; concentration 10.0000 μg/mL, 120 hours)?
Answer: 92.2%

Question: And the inhibition at 100 µg/mL ([1]; concentration 100.0000 μg/mL, 120 hours)?
Answer: 88.9%

Question: And the MIC80 [1, 3]?
Answer: 0.625 µg/mL (≈ 1.81 µM)

Question: For c1ccc(C(c2ccccc2)(c2ccncc2)n2ccnc2)cc1 [Compound 40, 1-[(diphenylpyridyl)methyl]imidazole], which activity at 20 µM (normal human melanocytes; [4]) is on record?
Answer: 44.7 ± 4.2%

Question: What about the MIC80 [1, 3] of the same compound?
Answer: 10 µg/mL (≈ 32.1 µM)
